Assay results published in ChEMBL document CHEMBL1681651, “A broad spectrum anticancer nucleoside with selective toxicity against human colon cells in vitro” (2011).

Tests used:
Format in all cases: functional
786-0 [1] = assay: Growth inhibition of human 786-0 cells assessed as cell growth at 10 uM after 48 hrs by SRB assay; conditions: 786-0, 48 h, read-out: Activity
OVCAR-8 [2] = assay: Growth inhibition of human OVCAR8 cells after 48 hrs by […] growth inhibition assay; conditions: OVCAR-8, 48 h
SK-MEL-5 = assay: Growth inhibition of human SK-MEL-5 cells assessed as cell growth at 0.1 uM after 48 hrs by SRB assay; conditions: SK-MEL-5, 48 h, read-out: Activity
MDA-MB-231 = assay: Growth inhibition of human MDA-MB-231 cells assessed as cell growth at 0.1 uM after 48 hrs by SRB assay; conditions: MDA-MB-231, 48 h, read-out: Activity
ACHN = assay: Growth inhibition of human ACHN cells assessed as cell growth at 10 uM after 48 hrs by SRB assay; conditions: read-out: Activity
786-0 [3] = assay: Growth inhibition of human 786-0 cells after 48 hrs by […] growth inhibition assay; conditions: 786-0, 48 h
HT-29 [4] = assay: Growth inhibition of human HT-29 cells assessed as cell growth at 1 mM after 48 hrs by SRB assay; conditions: HT-29, 48 h, read-out: Activity
KM12 = assay: Growth inhibition of human KM12 cells assessed as cell growth at 0.1 uM after 48 hrs by SRB assay; conditions: KM12, 48 h, read-out: Activity
SNB-75 = assay: Growth inhibition of human SNB75 cells after 48 hrs by […] growth inhibition assay; conditions: SNB-75, 48 h
DU-145 = assay: Growth inhibition of human DU145 cells assessed as cell growth at 0.1 uM after 48 hrs by SRB assay; conditions: DU-145, 48 h, read-out: Activity
HOP-92 = assay: Growth inhibition of human HOP92 cells assessed as cell growth at 10 uM after 48 hrs by SRB assay; conditions: HOP-92, 48 h, read-out: Activity
HCT-116 = assay: Growth inhibition of human HCT116 cells assessed as cell growth at 10 uM after 48 hrs by SRB assay; conditions: HCT-116, 48 h, read-out: Activity
HOP-62 [5] = assay: Growth inhibition of human HOP62 cells assessed as cell growth at 10 uM after 48 hrs by SRB assay; conditions: HOP-62, 48 h, read-out: Activity
CAKI-1 [6] = assay: Growth inhibition of human Caki1 cells assessed as cell growth at 0.1 uM after 48 hrs by SRB assay; conditions: CAKI-1, 48 h, read-out: Activity
SK-OV-3 = assay: Growth inhibition of human SKOV3 cells after 48 hrs by […] growth inhibition assay; conditions: SK-OV-3, 48 h
EKVX [7] = assay: Growth inhibition of human EKVX cells assessed as cell growth at 10 uM after 48 hrs by SRB assay; conditions: read-out: Activity
OVCAR-8 [8] = assay: Growth inhibition of human OVCAR8 cells assessed as cell growth at 0.1 uM after 48 hrs by SRB assay; conditions: OVCAR-8, 48 h, read-out: Activity
M14 [9] = assay: Growth inhibition of human M14 cells assessed as cell growth at 1 uM after 48 hrs by SRB assay; conditions: M14, 48 h, read-out: Activity
[10] = Growth inhibition of human […] cells assessed as cell growth at 1 mM after 48 hrs by SRB assay; conditions: read-out: Activity
SNB-19 [11] = assay: Growth inhibition of human SNB19 cells assessed as cell growth at 1 uM after 48 hrs by SRB assay; conditions: SNB-19, 48 h, read-out: Activity
OVCAR-4 = assay: Growth inhibition of human OVCAR4 cells assessed as cell growth at 100 uM after 48 hrs by SRB assay; conditions: OVCAR-4, 48 h, read-out: Activity
SF-539 = assay: Growth inhibition of human SF539 cells assessed as cell growth at 1 uM after 48 hrs by SRB assay; conditions: SF-539, 48 h, read-out: Activity
HT-29 [12] = assay: Growth inhibition of human HT-29 cells assessed as cell growth at 10 uM after 48 hrs by SRB assay; conditions: HT-29, 48 h, read-out: Activity
HOP-62 [13] = assay: Growth inhibition of human HOP62 cells assessed as cell growth at 1 uM after 48 hrs by SRB assay; conditions: HOP-62, 48 h, read-out: Activity
CAKI-1 [14] = assay: Growth inhibition of human Caki1 cells after 48 hrs by […] growth inhibition assay; conditions: CAKI-1, 48 h
SNB-19 [15] = assay: Growth inhibition of human SNB19 cells assessed as cell growth at 0.1 uM after 48 hrs by SRB assay; conditions: SNB-19, 48 h, read-out: Activity
RXF 393 = assay: Growth inhibition of human RXF393 cells assessed as cell growth at 100 uM after 48 hrs by SRB assay; conditions: RXF 393, 48 h, read-out: Activity
EKVX [16] = assay: Growth inhibition of human EKVX cells assessed as cell growth at 0.1 uM after 48 hrs by SRB assay; conditions: read-out: Activity
M14 [17] = assay: Growth inhibition of human M14 cells assessed as cell growth at 0.1 uM after 48 hrs by SRB assay; conditions: M14, 48 h, read-out: Activity
NCI-H522 = assay: Growth inhibition of human NCI-H522 cells assessed as cell growth at 100 uM after 48 hrs by SRB assay; conditions: NCI-H522, 48 h, read-out: Activity
NCI/ADR-RES = assay: Growth inhibition of human NCI/ADR-RES cells after 48 hrs by SRB assay
U-251 = assay: Growth inhibition of human U251 cells after 48 hrs by […] growth inhibition assay; conditions: U-251, 48 h
[18] = read-out: LC50 (the source's name)
[19] = read-out: pLC50 (the source's name) (converted)

Q: With `CNC(=O)NC[C@H]1O[C@@H](n2cnc3c(NC(=O)Nc4ccccc4)ncnc32)[C@H](O[Si](C)(C)C(C)(C)C)[C@@H]1CC(=O)N(C)OC` as the molecule, how does the growth at 10 µM (786-0 [1]) read?
A: 93%

Q: What about the GI50 (OVCAR-8 [2]; read-out: GI50) of the same molecule?
A: 9.02 µM

Q: And the CC50 (OVCAR-8 [2]; [18])?
A: > 100 µM

Q: What about the TGI (OVCAR-8 [2]; read-out: TGI) of the same molecule?
A: > 100 µM

Q: What about the GI50 (OVCAR-8 [2]; read-out: pGI50 (converted)) of the same molecule?
A: 9.12 µM

Q: What about the CC50 (OVCAR-8 [2]; [19]) of the same molecule?
A: > 100 µM

Q: What about the TGI (OVCAR-8 [2]; read-out: pTGI (converted)) of the same molecule?
A: > 100 µM

Q: What about the growth at 0.1 µM (SK-MEL-5) of the same molecule?
A: 104%

Q: And the growth at 0.1 µM (MDA-MB-231)?
A: 97%

Q: And the growth at 10 µM (ACHN)?
A: 95%

Q: What about the GI50 (786-0 [3]; read-out: GI50) of the same molecule?
A: 9.01 µM

Q: And the CC50 (786-0 [3]; [18])?
A: > 100 µM

Q: And the TGI (786-0 [3]; read-out: TGI)?
A: > 100 µM

Q: And the GI50 (786-0 [3]; read-out: pGI50 (converted))?
A: 8.91 µM

Q: And the CC50 (786-0 [3]; [19])?
A: > 100 µM

Q: What about the TGI (786-0 [3]; read-out: pTGI (converted)) of the same molecule?
A: > 100 µM

Q: And the growth at 1000 µM (HT-29 [4])?
A: 17%

Q: What about the growth at 0.1 µM (KM12) of the same molecule?
A: 101%

Q: And the GI50 (SNB-75; read-out: GI50)?
A: 12.7 µM

Q: What about the CC50 (SNB-75; [18]) of the same molecule?
A: > 100 µM

Q: And the TGI (SNB-75; read-out: TGI)?
A: > 100 µM

Q: And the GI50 (SNB-75; read-out: pGI50 (converted))?
A: 12.9 µM

Q: And the CC50 (SNB-75; [19])?
A: > 100 µM

Q: What about the TGI (SNB-75; read-out: pTGI (converted)) of the same molecule?
A: > 100 µM

Q: What about the growth at 0.1 µM (DU-145) of the same molecule?
A: 107%

Q: What about the growth at 10 µM (HOP-92) of the same molecule?
A: 67%

Q: And the growth at 10 µM (HCT-116)?
A: 89%

Q: And the growth at 10 µM (HOP-62 [5])?
A: 86%

Q: And the growth at 0.1 µM (CAKI-1 [6])?
A: 85%

Q: And the GI50 (SK-OV-3; read-out: GI50)?
A: 52.7 µM

Q: What about the CC50 (SK-OV-3; [18]) of the same molecule?
A: > 100 µM

Q: What about the TGI (SK-OV-3; read-out: TGI) of the same molecule?
A: > 100 µM

Q: What about the GI50 (SK-OV-3; read-out: pGI50 (converted)) of the same molecule?
A: 52.5 µM

Q: And the CC50 (SK-OV-3; [19])?
A: > 100 µM

Q: What about the TGI (SK-OV-3; read-out: pTGI) of the same molecule?
A: > 100 µM

Q: And the growth at 10 µM (EKVX [7])?
A: 95%

Q: And the growth at 0.1 µM (OVCAR-8 [8])?
A: 107%

Q: What about the growth at 1 µM (M14 [9]) of the same molecule?
A: 98%

Q: What about the growth at 1000 µM [10] of the same molecule?
A: -16%

Q: What about the growth at 1 µM (SNB-19 [11]) of the same molecule?
A: 93%

Q: And the growth at 100 µM (OVCAR-4)?
A: 60%

Q: And the growth at 1 µM (SF-539)?
A: 94%

Q: What about the growth at 10 µM (HT-29 [12]) of the same molecule?
A: 100%

Q: What about the growth at 1 µM (HOP-62 [13]) of the same molecule?
A: 88%

Q: And the GI50 (CAKI-1 [14]; read-out: GI50)?
A: 53.8 µM

Q: What about the CC50 (CAKI-1 [14]; [18]) of the same molecule?
A: > 100 µM

Q: And the TGI (CAKI-1 [14]; read-out: TGI)?
A: > 100 µM

Q: What about the GI50 (CAKI-1 [14]; read-out: pGI50 (converted)) of the same molecule?
A: 53.7 µM

Q: And the CC50 (CAKI-1 [14]; [19])?
A: > 100 µM

Q: And the TGI (CAKI-1 [14]; read-out: pTGI (converted))?
A: > 100 µM

Q: What about the growth at 0.1 µM (SNB-19 [15]) of the same molecule?
A: 94%

Q: What about the growth at 100 µM (RXF 393) of the same molecule?
A: 49%

Q: What about the growth at 0.1 µM (EKVX [16]) of the same molecule?
A: 94%

Q: And the growth at 0.1 µM (M14 [17])?
A: 98%

Q: And the growth at 100 µM (NCI-H522)?
A: 51%

Q: What about the GI50 (NCI/ADR-RES; read-out: GI50) of the same molecule?
A: > 100 µM

Q: What about the CC50 (NCI/ADR-RES; [18]) of the same molecule?
A: > 100 µM

Q: And the TGI (NCI/ADR-RES; read-out: TGI)?
A: > 100 µM

Q: What about the GI50 (NCI/ADR-RES; read-out: pGI50 (converted)) of the same molecule?
A: > 100 µM

Q: And the CC50 (NCI/ADR-RES; [19])?
A: > 100 µM

Q: And the TGI (NCI/ADR-RES; read-out: pTGI (converted))?
A: > 100 µM

Q: And the GI50 (U-251; read-out: GI50)?
A: 5.66 µM

Q: What about the CC50 (U-251; [18]) of the same molecule?
A: > 100 µM

Q: And the TGI (U-251; read-out: TGI)?
A: > 100 µM

Q: And the GI50 (U-251; read-out: pGI50 (converted))?
A: 5.62 µM

Q: And the CC50 (U-251; [19])?
A: > 100 µM

Q: And the TGI (U-251; read-out: pTGI (converted))?
A: > 100 µM
